# In patent US10765114B2, “4-amino-6-(pyridyl and 2-substitutedphenyl)-picolinates and 6-amino-2-(pyridyl and 2-substitutedphenyl)-pyrimidine-4-carboxylates and their use as herbicides” (Dow AgroSciences LLC, priority 2013, dated 2020):
# System: Key Grass and Sedge Weeds as well as Grass Crops
# Experiment: Post-Emergent Test II (Table 6)
# Type: in vivo
# Conditions: post-emergence, 336 h, ZEAMX: maize, corn (Zea mays), 70 g ai/ha, 14 days after application, read-out: Visual Growth Reduction (%) 14 Days After Application ZEAMX
# How it was run: (§1)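 Growth stage at treatment: first or second true leaf. Application: compound in acetone/DMSO diluted into an adjuvant-containing aqueous mix, sprayed at 187 L/ha at several rates. Assessment: visual 0-100% injury at 14 days against untreated plants.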
row,SMILES,pest or weed control at 70 g/ha [%]
1,"COC(=O)c1nc(-c2ccc(OC)nc2Cl)c(F)c(N)c1Cl [Compound 88, methyl 4-amino-2′,5-dichloro-3-fluoro-6′-methoxy-[2,3′-bipyridine]-6-carboxylate]",0 to 29

# Same assay, conditions: post-emergence, 336 h, ZEAMX: maize, corn (Zea mays), 140 g ai/ha, 14 days after application, read-out: Visual Growth Reduction (%) 14 Days After Application ZEAMX
row,SMILES,pest or weed control at 140 g/ha [%]
1,"COC(=O)c1nc(-c2ccc(OC)nc2Cl)c(F)c(N)c1Cl [Compound 88, methyl 4-amino-2′,5-dichloro-3-fluoro-6′-methoxy-[2,3′-bipyridine]-6-carboxylate]",0 to 29

# System: Key Broadleaf Weed and Crop Species
# Experiment: Post-Emergent Test II (Table 5)
# Type: in vivo
# Conditions: Abutilon theophrasti, post-emergence, 336 h, ABUTH: velvetleaf (Abutilon theophrasti), application rate 70 (kg ai/ha; footnote: g ai/ha), read-out: Visual Growth Reduction (%) 14 Days After Application ABUTH
# How it was run: as §1
row,SMILES,pest or weed control at 70 g/ha [%]
1,"COC(=O)c1nc(-c2ccc(OC)nc2Cl)c(F)c(N)c1Cl [Compound 88, methyl 4-amino-2′,5-dichloro-3-fluoro-6′-methoxy-[2,3′-bipyridine]-6-carboxylate]",75 to 84

# Same assay, conditions: Abutilon theophrasti, post-emergence, 336 h, ABUTH: velvetleaf (Abutilon theophrasti), application rate 140 (kg ai/ha; footnote: g ai/ha), read-out: Visual Growth Reduction (%) 14 Days After Application ABUTH
row,SMILES,pest or weed control at 140 g/ha [%]
1,"COC(=O)c1nc(-c2ccc(OC)nc2Cl)c(F)c(N)c1Cl [Compound 88, methyl 4-amino-2′,5-dichloro-3-fluoro-6′-methoxy-[2,3′-bipyridine]-6-carboxylate]",95 to 100

# Same assay, conditions: Amaranthus retroflexus, post-emergence, 336 h, AMARE: redroot pigweed (Amaranthus retroflexus), application rate 70 (kg ai/ha; footnote: g ai/ha), read-out: Visual Growth Reduction (%) 14 Days After Application AMARE
row,SMILES,pest or weed control at 70 g/ha [%]
1,"COC(=O)c1nc(-c2ccc(OC)nc2Cl)c(F)c(N)c1Cl [Compound 88, methyl 4-amino-2′,5-dichloro-3-fluoro-6′-methoxy-[2,3′-bipyridine]-6-carboxylate]",85 to 94

# Same assay, conditions: Brassica napus, post-emergence, 336 h, BRSSS: oilseed rape, canola (Brassica napus), application rate 70 (kg ai/ha; footnote: g ai/ha), read-out: Visual Growth Reduction (%) 14 Days After Application BRSSS
row,SMILES,pest or weed control at 70 g/ha [%]
1,"COC(=O)c1nc(-c2ccc(OC)nc2Cl)c(F)c(N)c1Cl [Compound 88, methyl 4-amino-2′,5-dichloro-3-fluoro-6′-methoxy-[2,3′-bipyridine]-6-carboxylate]",85 to 94

# Same assay, conditions: Brassica napus, post-emergence, 336 h, BRSSS: oilseed rape, canola (Brassica napus), application rate 140 (kg ai/ha; footnote: g ai/ha), read-out: Visual Growth Reduction (%) 14 Days After Application BRSSS
row,SMILES,pest or weed control at 140 g/ha [%]
1,"COC(=O)c1nc(-c2ccc(OC)nc2Cl)c(F)c(N)c1Cl [Compound 88, methyl 4-amino-2′,5-dichloro-3-fluoro-6′-methoxy-[2,3′-bipyridine]-6-carboxylate]",85 to 94

# Same assay, conditions: Chenopodium album, post-emergence, 336 h, CHEAL: lambsquarters (Chenopodium album), application rate 70 (kg ai/ha; footnote: g ai/ha), read-out: Visual Growth Reduction (%) 14 Days After Application CHEAL
row,SMILES,pest or weed control at 70 g/ha [%]
1,"COC(=O)c1nc(-c2ccc(OC)nc2Cl)c(F)c(N)c1Cl [Compound 88, methyl 4-amino-2′,5-dichloro-3-fluoro-6′-methoxy-[2,3′-bipyridine]-6-carboxylate]",95 to 100

# Same assay, conditions: Chenopodium album, post-emergence, 336 h, CHEAL: lambsquarters (Chenopodium album), application rate 140 (kg ai/ha; footnote: g ai/ha), read-out: Visual Growth Reduction (%) 14 Days After Application CHEAL
row,SMILES,pest or weed control at 140 g/ha [%]
1,"COC(=O)c1nc(-c2ccc(OC)nc2Cl)c(F)c(N)c1Cl [Compound 88, methyl 4-amino-2′,5-dichloro-3-fluoro-6′-methoxy-[2,3′-bipyridine]-6-carboxylate]",95 to 100

# Same assay, conditions: Euphorbia heterophylla, post-emergence, 336 h, EPHHL: wild poinsettia (Euphorbia heterophylla), application rate 70 (kg ai/ha; footnote: g ai/ha), read-out: Visual Growth Reduction (%) 14 Days After Application EPHHL
row,SMILES,pest or weed control at 70 g/ha [%]
1,"COC(=O)c1nc(-c2ccc(OC)nc2Cl)c(F)c(N)c1Cl [Compound 88, methyl 4-amino-2′,5-dichloro-3-fluoro-6′-methoxy-[2,3′-bipyridine]-6-carboxylate]",0 to 29

# Same assay, conditions: Euphorbia heterophylla, post-emergence, 336 h, EPHHL: wild poinsettia (Euphorbia heterophylla), application rate 140 (kg ai/ha; footnote: g ai/ha), read-out: Visual Growth Reduction (%) 14 Days After Application EPHHL
row,SMILES,pest or weed control at 140 g/ha [%]
1,"COC(=O)c1nc(-c2ccc(OC)nc2Cl)c(F)c(N)c1Cl [Compound 88, methyl 4-amino-2′,5-dichloro-3-fluoro-6′-methoxy-[2,3′-bipyridine]-6-carboxylate]",0 to 29

# Same assay, conditions: Helianthus annuus, post-emergence, 336 h, HELAN: sunflower (Helianthus annuus), application rate 70 (kg ai/ha; footnote: g ai/ha), read-out: Visual Growth Reduction (%) 14 Days After Application HELAN
row,SMILES,pest or weed control at 70 g/ha [%]
1,"COC(=O)c1nc(-c2ccc(OC)nc2Cl)c(F)c(N)c1Cl [Compound 88, methyl 4-amino-2′,5-dichloro-3-fluoro-6′-methoxy-[2,3′-bipyridine]-6-carboxylate]",75 to 84

# Same assay, conditions: Helianthus annuus, post-emergence, 336 h, HELAN: sunflower (Helianthus annuus), application rate 140 (kg ai/ha; footnote: g ai/ha), read-out: Visual Growth Reduction (%) 14 Days After Application HELAN
row,SMILES,pest or weed control at 140 g/ha [%]
1,"COC(=O)c1nc(-c2ccc(OC)nc2Cl)c(F)c(N)c1Cl [Compound 88, methyl 4-amino-2′,5-dichloro-3-fluoro-6′-methoxy-[2,3′-bipyridine]-6-carboxylate]",85 to 94

# Same assay, conditions: Viola tricolor, post-emergence, 336 h, VIOTR: wild pansy (Viola tricolor), application rate 70 (kg ai/ha; footnote: g ai/ha), read-out: Visual Growth Reduction (%) 14 Days After Application VIOTR
row,SMILES,pest or weed control at 70 g/ha [%]
1,"COC(=O)c1nc(-c2ccc(OC)nc2Cl)c(F)c(N)c1Cl [Compound 88, methyl 4-amino-2′,5-dichloro-3-fluoro-6′-methoxy-[2,3′-bipyridine]-6-carboxylate]",0 to 29

# Same assay, conditions: Viola tricolor, post-emergence, 336 h, VIOTR: wild pansy (Viola tricolor), application rate 140 (kg ai/ha; footnote: g ai/ha), read-out: Visual Growth Reduction (%) 14 Days After Application VIOTR
row,SMILES,pest or weed control at 140 g/ha [%]
1,"COC(=O)c1nc(-c2ccc(OC)nc2Cl)c(F)c(N)c1Cl [Compound 88, methyl 4-amino-2′,5-dichloro-3-fluoro-6′-methoxy-[2,3′-bipyridine]-6-carboxylate]",0 to 29
